These results are taken from patent US9012459B2, “Monohydrate crystalline form of 3-(5-(4-(3-fluoropropyl)-piperazin-1-yl)benzimidazol-2-yl)-1-azaazulen-2-one, preparation, and pharmaceutical composition thereof” (Industrial Technology Research Institute, priority 2012, dated 2015).

The nature of series [1]: hygroscopicity test (weight gain). Type of series: physicochemical. Particulars: for Weight gain (%): 1 day, temperature 22.5/21.8 ° C., relative humidity 70/71 %; for hygroscopicity: Hydroscopicity test. As for the experimental part: The monohydrate form of Formula I (300 mg) was dissolved at room temperature in the mix solution of CH2Cl2 (50 mL) and methanol (50 mL). Na2SO4 (10 g) was then added into the solution to absorb water with stir for 2 hours.

Series [2] is described as follows: stability examination by slurry test (XRPD). Particulars: stirred at 25° C. for 3 days in ethyl acetate, heptanes or isopropanol. Type of series: physicochemical. As for the experimental part: 1. Formula I-EA: the monohydrate form of Formula I (57 mg) and Ethyl acetate (1 mL) was provided.
2. Formula I-Heptane: the monohydrate form of Formula I (51 mg) and Heptanes (1 mL) was provided: […]
3. Formula I-IPA: the monohydrate form of Formula I (53 mg) and 1 mL of Isopropanol (1 mL) was provided.
The solutions provided above were stirred at 25° C. for 3 days and then a centrifugation was performed to collect the solid with centrifuge in each. Each of the collected solids was dried and analyzed using XPRD. […] This is a pre-test for the subsequent formulation, which is aimed to confirm that the monohydrate form wouldn't change with the incorporation of solvents. Therefore, the solvents used herein may not be the same as those crystallized solvents used in the embodiments.

Series [3] in a line: pharmacokinetics profile and bioavailability, PO dosing. The class given is in vivo. Particulars: PO 30 mg/kg, male SD rat; monohydrate in capsule and in 0.5% methyl cellulose suspension, sample #4 in 0.5% methyl cellulose. As for the experimental part:
The pharmacokinetics profile and the bioavailability were tested by a PO (per os) dosing with 30 mg/kg of sample of Example 1 (monohydrate), good in capsule (Tropac, 9el) and in bottle (0.5% methyl cellulose suspension) for male SD rat; and also a PO dosing with 30 mg/kg of sample #4 (mixed crystalline form) in 0.5% methyl cellulose for male SD rat as a treatment control. With the result from the above testing, the preferable PO dosing for first in human model was determined.
Generally, the PK profile of the crystalline form with good crystallinity and stability would be worse than that of amorphous form and complex form.
The terms used in FIG. 10 were listed as follows, PO (per os) represents taken by mouth; Cmax (ng/mL) represents the peak plasma concentration of a drug after administration; Tmax (hr) represents the time to reach Cmax; T1/2 (hr) represents elimination half-life, which represents the time required for the concentration of the drug to reach half of its original value; and AUC (hr*ng/mL) [area under the curve] represents the integral of the concentration-time curve (after a single dose or in steady state), and the bioavailability could be deducted from AUC values.

A short description of series [4]: stability test (XRPD and HPLC over time). Type of series: physicochemical. Particulars: about 25-30° C. and 40%-45% RH; after preparation, one, two and four months. The method, then: An appropriate amount of samples were prepared according to the method of Example 1. A XPRD analysis and a HPLC analysis were performed, under the environment of about 25-30° C. and 40%-45% RH, after the preparation of the samples (FIGS. 7a and 8a), and after one month (FIGS. 7b and 8b), two months (FIGS. 7c and 8c), and four months (FIGS. 7d and 8d) respectively from the time of preparation, and the results were examined to observe their differences over time.

A short description of series [5]: solubility in different pH buffer solutions (HPLC). The following applies: buffer solution, thermodynamic from solid, read-out: Concentration (solubility). Type of series: physicochemical.

Read-outs that look alike come from different tables or passages of the source.

In the case of `O=c1[nH]c2cccccc-2c1-c1nc2ccc(N3CCN(CCCF)CC3)cc2[nH]1` [anhydrate form, 3-(5-(4-(3-fluoropropyl)piperazin-1-yl)benzimidazol-2-yl)-1-azaazulen-2-one], in series [1], the “Weight gain (%)” value came out at 3.81% and the hygroscopicity is on record as 3.81%.
In the case of `O=c1[nH]c2cccccc-2c1-c1nc2ccc(N3CCN(CCCF)CC3)cc2[nH]1` [monohydrate form of Formula I, 3-(5-(4-(3-fluoropropyl)piperazin-1-yl)benzimidazol-2-yl)-1-azaazulen-2-one], the “crystalline form stability in slurry (XRPD vs original form)” value in series [2] is listed as “stable”. Further, the “PK profile (Cmax, Tmax, T1/2, AUC) compared between the 3 treatments” value in series [3] was “no statistically significant difference”. Further, the “stability (XRPD and HPLC differences over time)” value in series [4] was “stable and substantially the same over four months”. The solubility at 24 h in series [5] (pH 1.2, simulated gastric fluid, buffer pH1.2, 300 rpm) was 26300 µg/mL; in series [5] (pH 5, aqueous buffer, buffer pH5, 300 rpm), 263 µg/mL; in series [5] (pH 6.8, aqueous buffer, buffer pH6.8, 300 rpm), 3.7 µg/mL; in series [5] (pH 7.4, aqueous buffer, buffer pH7.4, 300 rpm), 2.4 µg/mL. The “Weight gain (%)” value in series [1] was found to be 1.57%. The compound further displayed a hygroscopicity in series [1] of 1.57%.
